Source: US20160158317A1, “Antimicrobial Peptide Variants and Polynucleotides Encoding Same” (Adenium Biotech A/S, priority 2010, published 2016)
Where a SMILES comes first, the peptide text is derived from it. Bridges are numbered along the chain shown (N, C = ends).

Experiment: Determination of the protein binding (90% serum, 30 kDa filter, HPLC)
Assay type: in vitro ADME
Details: serum
Procedure: Protein binding assays were performed as follows. The purified peptides were mixed with 90% serum and centrifuged through a 30 kDa filter. The ultra-filtrate and the non filtrated serum samples were quantified by HPLC measurements and the protein binding was subsequently calculated.

| SMILES | fraction unbound |
| --- | --- |
| CC(C)[C@@H]1NC(=O)[C@H](Cc2c[nH]cn2)NC(=O)[C@H](Cc2c[nH]c3ccccc23)NC(=O)[C@@H](NC(=O)[C@H](Cc2ccccc2)NC(=O)CN)CSSC[C@@H](C(=O)N[C@@H](CC(N)=O)C(=O)O)NC(=O)[C@H](CCCNC(=N)N)NC(=O)[C@H](CCCNC(=N)N)NC(=O)[C@H](Cc2ccc(O)cc2)NC(=O)[C@@H]2CSSC[C@H](NC1=O)C(=O)N[C@@H](Cc1c[nH]cn1)C(=O)N[C@@H](Cc1ccc(O)cc1)C(=O)N[C@@H](CCCNC(=N)N)C(=O)N[C@@H](CC(N)=O)C(=O)N[C@@H](CO)C(=O)N[C@@H](C(C)C)C(=O)N[C@@H](CCCNC(=N)N)C(=O)N[C@@H](C(C)C)C(=O)N2 [compound 219] (H-GFCWHVCHYRNSVRVCYRRCN-OH; disulfide 3-20, 7-16 (inferred); N-terminus and C-terminus assumed) | 0.01 |
| CC(C)[C@@H]1NC(=O)[C@@H]2CSSC[C@H](NC(=O)[C@H](CCCCN)NC(=O)[C@H](CCCNC(=N)N)NC(=O)[C@H](C)NC(=O)CNC(=O)[C@H](CC(N)=O)NC(=O)[C@H](CCCNC(=N)N)NC(=O)[C@H](Cc3ccc(O)cc3)NC1=O)C(=O)N[C@@H](Cc1ccc(O)cc1)C(=O)N[C@@H](CCCNC(=N)N)C(=O)N[C@@H](CCCNC(=N)N)C(=O)N[C@H](C(=O)N[C@@H](CC(N)=O)C(=O)O)CSSC[C@H](NC(=O)[C@H](Cc1ccccc1)NC(=O)CN)C(=O)N[C@@H](Cc1c[nH]c3ccccc13)C(=O)N[C@@H](CCCNC(=N)N)C(=O)N[C@@H](C(C)C)C(=O)N2 [compound 313] (H-GFCWRVCVYRNGARKCYRRCN-OH; disulfide 3-20, 7-16 (inferred); N-terminus and C-terminus assumed) | 0.02 |
| CC(C)[C@@H]1NC(=O)CNC(=O)[C@H](CC(N)=O)NC(=O)[C@H](CCCNC(=N)N)NC(=O)[C@H](Cc2ccc(O)cc2)NC(=O)[C@H](C(C)C)NC(=O)[C@@H]2CSSC[C@H](NC(=O)[C@H](C(C)C)NC(=O)[C@H](CCCNC(=N)N)NC1=O)C(=O)N[C@@H](Cc1ccc(O)cc1)C(=O)N[C@@H](CCCNC(=N)N)C(=O)N[C@@H](CCCNC(=N)N)C(=O)N[C@H](C(=O)N[C@@H](CC(N)=O)C(=O)O)CSSC[C@H](NC(=O)[C@H](Cc1ccccc1)NC(=O)CN)C(=O)N[C@@H](Cc1c[nH]c3ccccc13)C(=O)N[C@@H](CC(N)=O)C(=O)N[C@@H](C(C)C)C(=O)N2 [compound 11] (H-GFCWNVCVYRNGVRVCYRRCN-OH; disulfide 3-20, 7-16 (inferred); N-terminus and C-terminus assumed) | 0.27 |
| CC(C)[C@@H]1NC(=O)[C@@H]2CSSC[C@H](NC(=O)[C@H](C(C)C)NC(=O)[C@H](CCCNC(=N)N)NC(=O)[C@@H]3CCCN3C(=O)CNC(=O)[C@H](CC(N)=O)NC(=O)[C@H](CCCNC(=N)N)NC(=O)[C@H](Cc3ccc(O)cc3)NC1=O)C(=O)N[C@@H](Cc1ccc(O)cc1)C(=O)N[C@@H](CCCNC(=N)N)C(=O)N[C@@H](CCCNC(=N)N)C(=O)N[C@H](C(=O)N[C@@H](CC(N)=O)C(=O)O)CSSC[C@H](NC(=O)[C@H](Cc1ccccc1)NC(=O)CN)C(=O)N[C@@H](Cc1c[nH]c3ccccc13)C(=O)N[C@@H](Cc1ccc(O)cc1)C(=O)N[C@@H](C(C)C)C(=O)N2 [compound 33] (H-GFCWYVCVYRNGPRVCYRRCN-OH; disulfide 3-20, 7-16 (inferred); N-terminus and C-terminus assumed) | 0.01 |
| CC(C)[C@@H]1NC(=O)CNC(=O)[C@H](CC(N)=O)NC(=O)[C@H](CCCNC(=N)N)NC(=O)[C@H](Cc2ccc(O)cc2)NC(=O)[C@H](C(C)C)NC(=O)[C@@H]2CSSC[C@H](NC(=O)[C@H](CO)NC(=O)[C@H](CCCNC(=N)N)NC1=O)C(=O)N[C@@H](Cc1ccc(O)cc1)C(=O)N[C@@H](CCCNC(=N)N)C(=O)N[C@@H](CCCNC(=N)N)C(=O)N[C@H](C(=O)N[C@@H](CC(N)=O)C(=O)O)CSSC[C@H](NC(=O)[C@H](Cc1ccccc1)NC(=O)CN)C(=O)N[C@@H](C)C(=O)N[C@@H](CCCNC(=N)N)C(=O)N[C@@H](C(C)C)C(=O)N2 [compound 122] (H-GFCARVCVYRNGVRSCYRRCN-OH; disulfide 3-20, 7-16) | 0.19 |
| CC(C)[C@@H]1NC(=O)CNC(=O)[C@H](CC(N)=O)NC(=O)[C@H](CCCNC(=N)N)NC(=O)[C@H](Cc2ccc(O)cc2)NC(=O)[C@H](C(C)C)NC(=O)[C@@H]2CSSC[C@H](NC(=O)[C@H](C(C)C)NC(=O)[C@H](CCCNC(=N)N)NC1=O)C(=O)N[C@@H](Cc1ccc(O)cc1)C(=O)N[C@@H](CCCNC(=N)N)C(=O)N[C@@H](CCCNC(=N)N)C(=O)N[C@H](C(=O)N[C@@H](CC(N)=O)C(=O)O)CSSC[C@H](NC(=O)[C@H](Cc1ccccc1)NC(=O)CN)C(=O)N[C@@H](Cc1c[nH]c3ccccc13)C(=O)N[C@@H](Cc1ccc(O)cc1)C(=O)N[C@@H](CO)C(=O)N2 [compound 19] (H-GFCWYSCVYRNGVRVCYRRCN-OH; disulfide 3-20, 7-16 (inferred); N-terminus and C-terminus assumed) | 0.11 |
| CC(C)[C@@H]1NC(=O)CNC(=O)[C@H](CC(N)=O)NC(=O)[C@H](CCCNC(=N)N)NC(=O)[C@H](Cc2ccc(O)cc2)NC(=O)[C@H](C(C)C)NC(=O)[C@@H]2CSSC[C@H](NC(=O)[C@H](CO)NC(=O)[C@H](CCCNC(=N)N)NC1=O)C(=O)N[C@@H](Cc1ccc(O)cc1)C(=O)N[C@@H](CCCNC(=N)N)C(=O)N[C@@H](CCCNC(=N)N)C(=O)N[C@H](C(=O)N[C@@H](CC(N)=O)C(=O)O)CSSC[C@H](NC(=O)[C@H](Cc1ccccc1)NC(=O)CN)C(=O)N[C@@H](Cc1c[nH]c3ccccc13)C(=O)N[C@@H](Cc1ccc(O)cc1)C(=O)N[C@@H](C(C)C)C(=O)N2 [compound 44] (H-GFCWYVCVYRNGVRSCYRRCN-OH; disulfide 3-20, 7-16) | 0.15 |
| CC(C)[C@@H]1NC(=O)CNC(=O)[C@H](CC(N)=O)NC(=O)[C@H](CCCNC(=N)N)NC(=O)[C@H](CCCNC(=N)N)NC(=O)[C@H](C(C)C)NC(=O)[C@@H]2CSSC[C@H](NC(=O)[C@H](C(C)C)NC(=O)[C@H](CCCNC(=N)N)NC1=O)C(=O)N[C@@H](Cc1ccc(O)cc1)C(=O)N[C@@H](CCCNC(=N)N)C(=O)N[C@@H](CCCNC(=N)N)C(=O)N[C@H](C(=O)N[C@@H](CC(N)=O)C(=O)O)CSSC[C@H](NC(=O)[C@H](Cc1ccccc1)NC(=O)CN)C(=O)N[C@@H](Cc1ccccc1)C(=O)N[C@@H](CCCNC(=N)N)C(=O)N[C@@H](CO)C(=O)N2 [compound 377] (H-GFCFRSCVRRNGVRVCYRRCN-OH; disulfide 3-20, 7-16 (inferred); N-terminus and C-terminus assumed) | 0.35 |
| CC(C)C[C@@H]1NC(=O)[C@H](CC(N)=O)NC(=O)[C@H](Cc2c[nH]c3ccccc23)NC(=O)[C@@H](NC(=O)[C@H](Cc2ccccc2)NC(=O)CN)CSSC[C@@H](C(=O)N[C@@H](CC(N)=O)C(=O)O)NC(=O)[C@H](CCCNC(=N)N)NC(=O)[C@H](CCCNC(=N)N)NC(=O)[C@H](Cc2c[nH]cn2)NC(=O)[C@@H]2CSSC[C@H](NC1=O)C(=O)N[C@@H](C(C)C)C(=O)N[C@@H](Cc1ccc(O)cc1)C(=O)N[C@@H](CCCNC(=N)N)C(=O)N[C@@H](CC(N)=O)C(=O)NCC(=O)N[C@@H](C(C)C)C(=O)N[C@@H](CCCNC(=N)N)C(=O)N[C@@H](C(C)C)C(=O)N2 [compound 263] (H-GFCWNLCVYRNGVRVCHRRCN-OH; disulfide 3-20, 7-16 (inferred); N-terminus and C-terminus assumed) | 0.2 |
